Results reported in patent US20080234202A1, “Non-natural amino acids and neurotensin analogues” (priority 2004, published 2008).
Structures can show the parent of a compound that is named as a salt. Where two headings read alike, the source gives them in different places. Marks after values point to notes of the source that are not given here. Where a SMILES comes first, the peptide text is derived from it. [ ]: non-standard residue; d: D form. The star is where a group is joined. X4 = [N-]=[N+]=N[C@@H](CCCCCN)C(=O)*; X2 = C[C@@H](CCC[N+](C)(C)C)C(=O)*; Tle = CC(C)(C)[C@H](N)C(=O)O; X1 = C[C@@H](CCCCCN)C(=O)*

How the values were obtained:
NTR-1 = NTR-1 (Homo sapiens, UniProt P30989); assay: Competitive NTR-1 binding versus radiolabeled NT[8-13]
NTR-1, sequence (P30989 whole entry, species assumed): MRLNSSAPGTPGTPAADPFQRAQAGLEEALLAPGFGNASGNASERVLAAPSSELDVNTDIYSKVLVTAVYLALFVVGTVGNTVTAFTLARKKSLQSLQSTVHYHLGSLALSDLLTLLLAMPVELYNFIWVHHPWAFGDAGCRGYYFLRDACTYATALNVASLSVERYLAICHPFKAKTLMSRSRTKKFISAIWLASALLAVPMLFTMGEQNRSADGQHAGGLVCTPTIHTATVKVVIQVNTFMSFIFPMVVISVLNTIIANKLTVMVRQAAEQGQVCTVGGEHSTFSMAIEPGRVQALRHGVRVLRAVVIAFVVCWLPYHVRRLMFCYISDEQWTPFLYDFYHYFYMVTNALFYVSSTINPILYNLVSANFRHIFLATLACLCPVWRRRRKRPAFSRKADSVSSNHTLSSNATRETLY

[1] = Pharmacokinetics of ABS212 in Sprague-Dawley rats; format: in vivo, rat; settings: for Vd: read-out: volume of distribution at terminal phase; for half-life: read-out: half-life (T1/2) (converted); for clearance: read-out: systemic clearance (converted)
Source text: These samples were used for the determination of plasma parent drug concentrations by LC/MS/MS for estimating pharmacokinetic parameters and oral bioavailability.

NTR-2 [2] = molecular target: NTR-2 (Rattus norvegicus, UniProt Q63384); settings: for Tmax (I.P.) of %MPE / MPE (I.P.): IP at 10 mg/kg; for MPE (I.P.): hotplate 52 C, cutoff 30 sec; for asterisk at peptide name: significant activity in the hotplate assay: Table 13; for MPE (oral) / Tmax (Oral) of %MPE: orally at 20 mg/kg
NTR-2 (Rattus norvegicus, UniProt Q63384), sequence (Q63384 whole entry): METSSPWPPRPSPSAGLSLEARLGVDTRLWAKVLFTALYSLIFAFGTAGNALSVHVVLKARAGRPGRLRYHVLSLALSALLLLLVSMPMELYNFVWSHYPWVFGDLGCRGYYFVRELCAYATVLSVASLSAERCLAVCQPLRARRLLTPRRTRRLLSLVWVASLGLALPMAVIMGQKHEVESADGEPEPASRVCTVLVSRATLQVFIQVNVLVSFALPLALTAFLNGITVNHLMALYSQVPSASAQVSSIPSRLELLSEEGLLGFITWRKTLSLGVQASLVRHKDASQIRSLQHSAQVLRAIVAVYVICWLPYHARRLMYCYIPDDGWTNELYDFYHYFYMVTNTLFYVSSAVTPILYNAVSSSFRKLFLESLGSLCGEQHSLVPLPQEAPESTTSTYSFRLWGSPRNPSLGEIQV
Experimental: Animals. […] (230-260 g) or Harlan, Prattville Ala.
The Hotplate Assay. The hotplate assay, a standard rat model for […] pain (see Le Bars et al., Pharmacol. Rev. 53: 597-652 (2001) and Chapman et al., Pain 22:1-31 (2002)), was performed as follows. A hotplate maintained at 52° C. to 53° C. was enclosed on four sides in a plexiglass chamber that extended 6 in. above the plate. Animals were placed on the plate, and the latency between the time a rat was placed on the surface and when it lifts or licks a back paw (indicative of pain sensation) was determined. Animals are removed immediately at the cutoff latency of 30 seconds. Assays are scored as the percent of maximal possible effect (% MPE) defined as 100%, which corresponds to the rats remaining on the hotplate for 30 seconds without responding. Thus, % MPE are calculated using the following equation: % MPE=[(post-drug latency-pre-drug latency)/(cut-off pre-drug latency)]×100%. N=6 or greater for all experiments.
Values for each set of experiments will be submitted to analysis of variance, with dose (vehicle and 5 levels) as the factor. […] An effect will be considered significant if p<0.05.
Tmax indicates the time after dosing in which a maximum response was observed.
Initial screens of all peptides included (1) evaluating their analgesic ability when dosed IP or orally (indicative of NTR-2 agonism) and (2) evaluating their ability to induce hypothermia when IP, a secondary effect of NTR-1 agonist activity.

NTR-2 [3] = molecular target: NTR-2 (Homo sapiens, UniProt O95665); assay: Competitive NTR-2 binding versus radiolabeled NT[8-13]
NTR-2 (Homo sapiens, UniProt O95665), sequence (O95665 whole entry, species assumed): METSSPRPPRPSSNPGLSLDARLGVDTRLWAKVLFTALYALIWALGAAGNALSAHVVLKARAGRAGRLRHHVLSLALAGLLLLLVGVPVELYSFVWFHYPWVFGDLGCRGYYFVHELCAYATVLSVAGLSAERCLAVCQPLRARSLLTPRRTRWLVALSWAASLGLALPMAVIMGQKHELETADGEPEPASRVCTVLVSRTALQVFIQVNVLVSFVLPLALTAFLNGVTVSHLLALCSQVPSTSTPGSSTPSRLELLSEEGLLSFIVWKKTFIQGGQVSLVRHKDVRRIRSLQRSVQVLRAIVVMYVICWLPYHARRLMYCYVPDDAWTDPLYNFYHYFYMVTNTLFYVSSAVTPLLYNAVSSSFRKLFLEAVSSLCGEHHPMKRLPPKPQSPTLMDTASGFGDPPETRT

[4] = Acute toxicity, clinical observation and maximum tolerated dose in rats; format: in vivo, rat
Experimental: During the 2 and 24 hour post-dosing clinical observation periods, measurements of core body temperatures were taken.

[5] = d-Amphetamine induced hyperlocomotion and spontaneous locomotor activity; format: in vivo, rat; settings: Table 11
Source text: This model operates on the assumption that the direct stimulation of DA receptors within the mesolimbic DA system is responsible for the locomotor response.
Sound- and light-attenuated locomotor cages are used to measure the ability of potential candidates to decrease d-amphetamine-induced hyperactivity.
d-Amphetamine induced hyperlocomotion. Experimentally I male Sprague-Dawley rats were housed as described above. Rats were handled for three days prior to testing to minimize experimenter induced hyperlocomotion on test day. For experiments, sound- and light-attenuated automated photocell beam activity chambers (AccuScan Instruments, Inc., Columbus, Ohio) were used to measure locomotion. Cages were connected to a VersaMax Analyzer (AccuScan) in conjunction with an IBM computer using VersaMax 1.80-0146 software (AccuScan) to record vertical and horizontal activity. Total activity values recorded were the sum of vertical and horizontal activity.
Each animal's activity was measured by how many times per minute the animal “trips” a photobeam in a computer-controlled photocell activity chamber (San Diego Instruments, San Diego, Calif.). […] Doses were assigned so that each was assessed in 12 chambers that were distributed over the apparatus, which controls for variations in lighting, etc. of the different chambers. […]

in vitro = settings: plasma
[6] = rat, in vivo
Experimental: Cataleptic Analysis. In laboratory tests, catalepsy is characterized by the inability of an animal to correct its position after placement in an unnatural posture. […] To circumvent these potential confounding factors, tests are performed on an animal only once in a quiet, controlled environment.
Catalepsy Assessment. […] Rats were given an IP injection of peptide (5 mg/Kg), saline, or haloperidol (1 mg/kg). After 3 hours, catalepsy was measured using the horizontal bar test. Briefly, the front paws were placed directly on a horizontal bar 5 mm in diameter placed 7.5 cm above the cage floor. The rat was held in this position for 3 sec and then released. The time from release until the paws return to the cage floor was measured and recorded. A cut-off time of 30 sec was observed; this indicated a fully cataleptic animal as cataleptic animals are frozen to the bar. […] Measures were repeated every 30 min for 4 hr. Data are means±SEM (p<0.01).
After 2 h, catalepsy was measured using the horizontal bar test. Data are means±SEM (p<0.01).

Tail flick assay = settings: ABS212 10 mg/kg, Morphine 5 mg/kg
Formalin assay = settings: morphine 5 mg/kg, approximately equimolar
[7] = Sprague-Dawley, rat, plasma, IV bolus 1 mg/kg
[8] = Sprague-Dawley, rat, plasma, IV bolus 2.5 mg/kg
[9] = Sprague-Dawley, rat, plasma, IV bolus 5 mg/kg
[10] = Sprague-Dawley, rat, plasma, oral 50 mg/kg

CC[C@H](C)[C@H](NC(=O)[C@H](Cc1ccc(O)cc1)NC(=O)[C@@H]1CCCN1C(=O)[C@H](CCCNC(=N)N)NC(=O)[C@H](CCCNC(=N)NC)N=[N+]=[N-])C(=O)N[C@@H](CC(C)C)C(=O)O [ABS16, X-Arg-Pro-Tyr-isoleu-Leu]
EC50 (NTR-1): 0.3 ± 0.05 nM

CC(C)C[C@H](NC(=O)[C@@H](NC(=O)[C@H](Cc1ccc(O)cc1)NC(=O)[C@@H]1CCCN1C(=O)[C@H](CCCNC(=N)N)NC(=O)[C@@H](C)CCC[N+](C)(C)C)C(C)(C)C)C(=O)O [ABS-212.2HCL] (X2-RPY[Tle]L-OH)
clearance as % of rat hepatic blood flow (3.31 L/hr/kg) ([1]; IV bolus 1 mg/kg): 32.33% | clearance as % of rat hepatic blood flow (3.31 L/hr/kg) ([1]; IV bolus 5 mg/kg): 12.08% | clearance as % of rat hepatic blood flow (3.31 L/hr/kg) ([1]; IV bolus […]): 12.08% | Vd ([1]; Sprague-Dawley, rat, plasma, IV 1 mg/kg): 0.43 ± 0.15 L/kg | Vd ([1]; Sprague-Dawley, rat, plasma, IV 2.5 mg/kg): 0.15 ± 0.01 L/kg | Vd ([1]; Sprague-Dawley, rat, plasma, IV 5 mg/kg): 0.16 ± 0.06 L/kg | half-life [1, 7]: 16.8 ± 4.8 min | clearance [1, 7]: 17.8 mL/min/kg | half-life [1, 8]: 16.8 ± 6.6 min | clearance [1, 8]: 6.67 mL/min/kg | half-life [1, 9]: 17.4 ± 7.8 min | clearance [1, 9]: 6.67 mL/min/kg | AUC(0-inf) [1, 10]: 53.1 ± 39.6 ng·h/mL | Cmax [1, 10]: 27.1 ± 11.6 ng/mL | Tmax [1, 10]: 8.4 ± 3 min | bioavailability ([1]; Sprague-Dawley, rat, plasma, oral 50 mg/kg, 1 mg/kg group as IV dose data): 0.11 ± 0.08% | half-life [1, 10]: 85.2 ± 52.2 min

Orn-Arg-Pro-Tyr-t-Leu-Leu [ABS233]
Tmax (I.P.) of %MPE (NTR-2 [2]; 10 mg/kg): 45 | MPE (I.P.) (NTR-2 [2]; 10 mg/kg): 51%

Arg-Arg-Pro-Tyr-t-Leu-Leu [ABS213]
Tmax (I.P.) of %MPE (NTR-2 [2]): 30 | MPE (I.P.) (NTR-2 [2]; 10 mg/kg): 48%

1-Arg-Pro-Tyr-t-Leu-Leu [ABS202]
Tmax (I.P.) of %MPE (NTR-2 [2]; 10 mg/kg): 30-75 | asterisk at peptide name: significant activity in the hotplate assay (NTR-2 [2]): ABS202* | MPE (I.P.) (NTR-2 [2]; 10 mg/kg): 100% | % MPE (NTR-2 [2]; hotplate 52° C., cutoff 30 seconds, Table 10): 100% | % MPE (tmax, min) (NTR-2 [2]; hotplate, Table 10): 45 min | MPE (oral) (NTR-2 [2]; hotplate, 20 mg/kg): 52% | Tmax (Oral) of %MPE (NTR-2 [2]; 20 mg/kg): 45

Lys-Arg-Pro-Tyr-t-Leu-Leu [ABS205]
Tmax (I.P.) of %MPE (NTR-2 [2]; 10 mg/kg): 15-30 | asterisk at peptide name: significant activity in the hotplate assay (NTR-2 [2]): ABS205* | MPE (I.P.) (NTR-2 [2]; 10 mg/kg): 86% | MPE (oral) (NTR-2 [2]; hotplate): 66% | Tmax (Oral) of %MPE (NTR-2 [2]): 30

CC[C@H](C)[C@H](NC(=O)[C@H](Cc1ccc(O)cc1)NC(=O)[C@@H]1CCCN1C(=O)[C@H](CCCNC(=N)N)NC(=O)[C@H](CCCNC(=N)N)N=[N+]=[N-])C(=O)N[C@@H](CC(C)C)C(=O)O [ABS15, X-Arg-Pro-Tyr-isoleu-Leu]
EC50 (NTR-1): 0.4 ± 0.1 nM | EC50 (NTR-2 [3]): 0.9 ± 0.2 nM | NTR-1/NTR-2 selectivity (NTR-2 [3]; Table 12): 2.5

CC(C)C[C@H](NC(=O)[C@@H](NC(=O)[C@H](Cc1ccc(O)cc1)NC(=O)[C@@H]1CCCN1C(=O)[C@H](CCCNC(=N)N)NC(=O)[C@@H](C)CCCCCN)C(C)(C)C)C(=O)O [ABS201 HCl] (X1-RPY[Tle]L-OH)
clinical observation 2 hour post-dosing ([4]; 50 mg/kg IV): all animals appeared grossly normal although marked hypothermia was present | clinical observation 24 hour post-dosing ([4]; 50 mg/kg IV): all animals appeared grossly normal; hypothermia was absent | acute behaviour during intravenous dosing ([4]; 50 mg/kg IV, slow push via tail vein): noticeably sedate | clinical observation after oral dosing ([4]; 250 mg/kg PO): appeared grossly normal at all time points

CC[C@H](C)[C@H](NC(=O)[C@H](Cc1ccc(O)cc1)NC(=O)[C@@H]1CCCN1C(=O)[C@H](CCCNC(=N)N)NC(=O)[C@@H](N)CCCNC(=N)N)C(=O)N[C@@H](CC(C)C)C(=O)O [NT(8-13), NH2-Arg-Arg-Pro-Tyr-Ile-Leu-COOH]
Hyperlocomotion Inhibition (active routes) [5]: CNS administration | Inhibits locomotor activity (active routes) [5]: CNS administration | half-life (in vitro): 5 min | Catalepsy [6]: No

Lys-Arg-Pro-Tyr-t-Leu-Leu [ABS229]
Tmax (I.P.) of %MPE (NTR-2 [2]; 10 mg/kg): 60 | MPE (I.P.) (NTR-2 [2]; 10 mg/kg): 48%

CN1CC[C@]23c4c5ccc(O)c4O[C@H]2[C@@H](O)C=C[C@H]3[C@H]1C5 [Morphine, reference compound]
MPE (0 min) (Tail flick assay): 0.03 +/− 0.05 | MPE (30 min) (Tail flick assay): 63.7 +/− 41.9 | MPE (60 min) (Tail flick assay): 67.5 +/− 25.8 | duration of activity of morphine (Formalin assay): loses activity after 30 minutes

X-Arg-Pro-Tyr-isoleu-Leu [ABS19]
EC50 (NTR-1; competitive binding, Table 12, read-out: NTR-1): 1.2 ± 0.7 nM

hLys-Arg-Pro-Tyr-t-Leu-Leu [ABS225]
Tmax (I.P.) of %MPE (NTR-2 [2]): 15-45 | asterisk at peptide name: significant activity in the hotplate assay (NTR-2 [2]): ABS225* | MPE (I.P.) (NTR-2 [2]): 100% | MPE (oral) (NTR-2 [2]; hotplate): 38% | Tmax (Oral) of %MPE (NTR-2 [2]): 30

Arg-Arg-Pro-Tyr-t-Leu-Leu [ABS237]
Tmax (I.P.) of %MPE (NTR-2 [2]): 30 | MPE (I.P.) (NTR-2 [2]; 10 mg/kg): 50%

Boc-Arg-Pro-Tyr-t-Leu-Leu [ABS700]
Tmax (I.P.) of %MPE (NTR-2 [2]): 90 | MPE (I.P.) (NTR-2 [2]): 51%

Orn-Arg-Pro-Tyr-t-Leu-Leu [ABS209]
Tmax (I.P.) of %MPE (NTR-2 [2]; 10 mg/kg): 60 | MPE (I.P.) (NTR-2 [2]; 10 mg/kg): 89%

CCNC(=N)NCCC[C@H](N=[N+]=[N-])C(=O)N[C@@H](CCCNC(=N)N)C(=O)N1CCC[C@H]1C(=O)N[C@@H](Cc1ccc(O)cc1)C(=O)N[C@H](C(=O)N[C@@H](CC(C)C)C(=O)O)[C@@H](C)CC [ABS17, X-Arg-Pro-Tyr-isoleu-Leu]
EC50 (NTR-1): 0.25 ± 0.07 nM

CC(C)C[C@H](NC(=O)[C@@H](NC(=O)[C@H](Cc1ccc(O)cc1)NC(=O)[C@@H]1CCCN1C(=O)[C@H](CCCNC(=N)N)NC(=O)[C@H](CCCCCN)N=[N+]=[N-])C(C)(C)C)C(=O)O [ABS13, N3-L-homolysine-Arg-Pro-Tyr-tertLeu-Leu-COOH] (X4-RPY[Tle]L-OH)
EC50 (NTR-1): 5.7 ± 0.37 nM | EC50 (NTR-2 [3]): 11.1 ± 0.1 nM
